# Experimental data as given in paper PMC12118722, “Self-assembled peptide-dye nanostructures for in vivo tumor imaging and photodynamic toxicity” (npj Imaging, 2024).
# Assays:
# HEK 293T cells = test: Competitive inhibition flow cytometry with αVβ5 primary antibodies; format: cell-based, human
# Protocol: The peptide formulations were further challenged via competitive inhibition flow cytometry studies to confirm their specific interactions with integrin receptors (Fig. 3b, c). In addition to labeling as before, some cells were pre-incubated with αVβ5 primary antibodies before iRGD-BNPs or iRGD-SNPs. […] There was no observable change in fluorescence from the presence of the antibodies for HEK 293-T cells.
# 300,000 cells were seeded overnight. For the competitive inhibition samples, cell cultures were first treated with αVβ5 mABs ([…]) for 90 min. The cells were then treated with the iRGD-BNPs, iR GD-SNPs, or methylene blue. The cells were detached, collected at 700xG, and the media was decanted while the cells were resuspended in ice cold buffer for flow cytometry using the APC channel.
# [1] = methylene blue reference value used for the relative measurement; no reference given; cited from earlier work
# From the text: The optical and photoacoustic properties of the assemblies were also studied (Fig. 4). When the nanospheres and branched NPs were scanned from 400 to 700 nm for optical absorbance, both adopted a similar peak absorbance to methylene blue at 662 nm. When the peaks were normalized, there was no 614 nm shoulder growth where dimerization typically forms. While the iRGD-BNP maintained methylene blue’s distinct blue color, the iRGD-SNP samples shifted to a slightly greener color. The quantum yield for the branched NPs and the nanospheres relative to methylene blue (52%) were 43% and 31%, respect ...
# [2] = Ex vivo biodistribution by methylene blue fluorescence of harvested organs; settings: ex vivo IVIS fluorescence after euthanasia
# From the text: The vital organs of the subjects were harvested after euthanasia and analyzed for fluorescence from the methylene blue for biodistribution studies.
# After the subject was euthanized, the heart, lungs, liver, spleen, kidneys, and tumor were harvested and rinsed in PBS. The organs were then imaged for fluorescence signal via IVIS Perkin-Elmer Illumination and LivingImage software.
smiles,measurement,setting,value
CN(C)c1ccc2nc3ccc(=[N+](C)C)cc-3sc2c1 [methylene blue],change in fluorescence with αVβ5 antibody pre-incubation,HEK 293T cells,no change in fluorescence increase
same,quantum yield of reference,[1],52%
same,fluorescence in vital organs,[2],nonspecific and low fluorescence in all of the vital organs
